According to PMC4813465, “Selective Inhibition of the Mitochondrial Permeability Transition Pore Protects against Neurodegeneration in Experimental Multiple Sclerosis” (The Journal of Biological Chemistry, 2015):

What was measured:
[1] = system: T cell proliferative response in draining auricular lymph node; experiment: In vivo T cell proliferation, oxazolone contact hypersensitivity; design: species or system mouse
Procedure: The contact sensitizer 4-ethoxymethylene-2-phenyl-2-oxazolin-5-one (oxazolone; Sigma) was dissolved (25 mg/ml) in 4:1 acetone/olive oil. Mice (n = 3/group) received epicutaneous application of either 25 μl of 2.5% oxazolone or acetone/olive oil on the dorsum of the ear on day 0 ([70]). The draining auricular lymph nodes were removed 3 days later, and the induced proliferative response was assessed as described previously. Briefly, 5 × 10^5 cells/well were cultured in RPMI 1640 medium with glutamate (Gibco®, Invitrogen Ltd., Paisley UK), supplemented with 0.5 mM sodium, in round-bottomed 96-well plates overnight at 37 °C in a humidified atmosphere of 5% CO2 in the presence of 1 μCi of [^3H]thymidine (PerkinElmer Life Sciences) per well. DNA synthesis was estimated using β-scintillation counting as above. […] Results are expressed as mean ± S.E. thymidine incorporation counts/min.

TRIM-CypA = TRIM-CypA (Homo sapiens, UniProt P62937+Q6PIZ9)
TRIM-CypA, sequence (P62937 2-165, one chain of several): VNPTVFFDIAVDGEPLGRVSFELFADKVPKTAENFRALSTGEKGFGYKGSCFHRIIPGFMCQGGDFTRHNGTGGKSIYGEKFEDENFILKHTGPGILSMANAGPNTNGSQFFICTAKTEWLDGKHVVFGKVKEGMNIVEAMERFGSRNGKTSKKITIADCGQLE
Procedure: Viral supernatant was collected 48 h post-transfection and stored at −80 °C.
To generate CRFK cells stably expressing N-terminally HA-tagged TRIM-CypA from an EXN-based vector, murine leukemia virus (MLV) vector was prepared as above, using pMDG, CMVi MLV gag-pol expression vector, and γ-retroviral expression vector encoding a fusion protein comprising human CypA downstream of owl monkey TRIM5 RBCC (EXN-TRIM-CypA) ([67]). CRFK cells, which are null for TRIM5α activity ([68]), were then transduced with vector, followed by selection of cells in 1 mg/ml G418 (Invitrogen).
Infectivity was measured by flow cytometry 48 h postinfection.

rat cortical neurons = experiment: Mitochondrial membrane potential (TMRM) in rat cortical neurons; type: cell-based
Text: The minimum value after the addition of compound (prior to the addition of FCCP) was taken, and this was expressed as a percentage (using the baseline as 100% and FCCP as 0%) and then normalized to DMSO (100%).

[2] = target: Ca2+-mediated PT pore formation (Mus musculus, UniProt Q99KR7); details: liver mitochondria
Ca2+-mediated PT pore formation, sequence (Q99KR7 30-206): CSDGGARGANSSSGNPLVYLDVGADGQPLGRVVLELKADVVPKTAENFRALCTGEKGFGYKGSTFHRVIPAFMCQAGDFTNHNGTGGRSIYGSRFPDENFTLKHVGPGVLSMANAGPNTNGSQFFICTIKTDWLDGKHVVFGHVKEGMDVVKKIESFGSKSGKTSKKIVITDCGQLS

[3] = system: splenocytes from MOG 35-55 immunized ABH mice; experiment: Myelin antigen (MOG 35-55)-induced T cell proliferation; type: cell-based, mouse; details: MOG residues 35–55, 5 μg/ml
Procedure: ABH mice were injected subcutaneously in the flank with 100 μg of myelin oligodendrocyte glycoprotein (MOG) peptide residues 35–55 (Cambridge Research Biochemicals Ltd., Billingham, UK) emulsified in Freund's adjuvant containing 200 μg of Mycobacterium tuberculosis H37Ra (Difco, Becton Dickinson, Oxford, UK) on days 0 and 7 ([69]). Spleens were collected and prepared and analyzed as above except that mitogens were replaced with 5 μg/ml MOG 35–55 peptide, and cells were incubated for 72 h before the addition of tritiated thymidine.

[4] = system: experimental autoimmune encephalomyelitis; experiment: Relapsing-progressive EAE in ABH mice (neurological score, RotaRod, neurofilament ELISA); type: in vivo, mouse
Procedure: Mice were injected subcutaneously with 1 mg of freeze-dried mouse spinal cord homogenate (SCH) in Freund's adjuvant on days 0 and 7 as described previously ([71]). After the initial paralytic disease and subsequent remission, a relapse was induced by a further injection of SCH in Freund's incomplete adjuvant on day 28 to induce a relapse 7 days later ([71]). Studies were randomized, blinded, and powered as described previously ([71]). Neurological scores were graded as 0 = normal, 1 = limp tail, 2 = impaired righting reflex, 3 = hind limb paresis, 4 = complete hind limb paralysis, and 5 = moribund/death ([71]). Results are expressed as mean ± S.E. maximum or minimum neurological score and mean day of onset ± S.D. The clinical scores are presented as the mean daily neurological score ± S.E. Differences in clinical scores were assessed using non-parametric, Mann-Whitney U statistics ([71]). Motor control and coordination were assessed on an accelerating (4–40 rpm, accelerating at 6 rpm/25 s) RotaRod (ENV-575M, Med Associates Inc., St. Albans, VT) as described previously ([71]). This was performed 1 day before induction of relapse and at the termination of the experiment on day 45. RotaRod assessment was performed blinded to treatment. Animals were randomized to vehicle or treatment based on their RotaRod scores. Results are expressed as mean ± S.E. time that animals maintained rotarod activity. Differences in rota activity and quantitative neurofilament ELISA were assessed using Student's t test incorporating tests for equality of variance using Sigmaplot (Systat Software, Inc., San Jose, CA) ([71]).
At the end of the experiment, the spinal cord was removed, and an ELISA for heavy chain neurofilament on spinal cord was performed. Total nerve content of each spinal cord was estimated following calibration against neurofilament protein standards as described previously ([71], [72]).
Neurofilament level as a validated correlate of spinal cord axonal content as determined by histology was determined as follows. […] Tissues were snap-frozen and stored at −80 °C before homogenization. Tissues were homogenized in a glass homogenizer in 1 ml/100 mg of spinal cord tissue wet weight homogenization buffer (0.2 mM PMSF, 1 mM EDTA, 1 mM EGTA, 4 M urea, 10 mM Tris-HCl (Sigma), pH 7.2) plus 1:100 HALT protease inhibitor mixture (Thermo Fisher Scientific) and further homogenized by sonication twice for 10 s (Cole-Parmer Instruments, Vernon Hills, IL). Samples were spun down at 13,000 rpm in a bench top centrifuge (Eppendorf), and the supernatant was collected and stored at −80 °C before neurofilament determination. Samples were thawed on ice, and an ELISA for heavy chain neurofilament was performed. Briefly, a 96-well plate was coated overnight at 4 °C with capture antibody (1:5000; SMI35 anti-neurofilament H, Cambridge Bioscience, Cambridge, UK) in coating buffer (0.15 M Na2CO3, 0.35 M NaHCO3 (Sigma), pH 9.6). Following one wash in wash buffer (150 mM NaCl, 10 mM Tris-HCl, 0.1% Tween 20 (Sigma), pH 7.5), nonspecific binding was blocked by incubation with 5% bovine serum albumin (Sigma) in wash buffer for 1 h at room temperature. Following a wash step, samples and standards (porcine neurofilament heavy chain, Chemicon International) were diluted in wash buffer with 1% bovine serum albumin and incubated on the plate for 1 h at room temperature. Following five wash steps, the detector antibody was applied (1:1000 rabbit anti-NF200, Sigma) and incubated for a further 1 h at room temperature. The plate was washed five times, and the reporter antibody was applied (1:1000 swine anti-rabbit HRP conjugate, DAKO). Following a final five washes, tetramethylbenzidine substrate (Sigma) was applied, and color production was measured on a BioTek Synergy HT plate reader at 450 nm.

[5] = system: mitochondria of rat cortical neurons and isolated liver mitochondria; experiment: Mitochondrial functional parameters (membrane potential, oxygen consumption, ATP production) in cultured rat neurons and isolated mitochondria; type: cell-based
Procedure: Oxygen consumption was measured using Oroboros Oxygraph-2K as described previously ([62]). Prior to the assay, the Oxygraph chambers were calibrated with Miro5 buffer (0.5 mM EGTA, 3 mM MgCl2·6H2O, 60 mM potassium lactobionate, 20 mM taurine, 10 mM KH2PO4, 20 mM HEPES, 110 mM sucrose, 1 g/liter BSA (essentially fatty acid-free)). Isolated mitochondria were suspended in Miro5 (at 100–200 μg/ml) and loaded into the chamber together with substrates (malate, 2 mM; glutamate, 10 mM), and the O2 flow signal was allowed to stabilize to the basal respiration rate (∼10 min). […] Data were analyzed by subtracting the antimycin A respiration rate to give mitochondrial specific O2 flow and were then expressed as a percentage of the basal O2 flow.
Rat cortical neurons, cultured for 8–9 days, were incubated for 40 min at 37 °C with the cell-permeant cationic dye tetramethylrhodamine methyl ester (25 nM), and fluorescence was measured using the ImageXpress Micro XL system (Molecular Devices). […] The minimum value after the addition of compound (prior to the addition of FCCP) was taken, and this was expressed as a percentage (using the baseline as 100% and FCCP as 0%) and then normalized to DMSO (100%).
Freshly isolated mouse liver mitochondria were suspended in MSK buffer containing 10 μg/ml rhodamine 123 (dequench mode), at a concentration of 500 μg/ml, and plated in an opaque black 96-well plate. […]

K133I CypD = K133I CypD (Homo sapiens, UniProt P30405, K175I); experiment: Fluorescence polarization cyclophilin binding assay, CypD; details: probe 45 nM, enzyme 40 nM
K133I CypD, sequence (P30405 43-207 K175I): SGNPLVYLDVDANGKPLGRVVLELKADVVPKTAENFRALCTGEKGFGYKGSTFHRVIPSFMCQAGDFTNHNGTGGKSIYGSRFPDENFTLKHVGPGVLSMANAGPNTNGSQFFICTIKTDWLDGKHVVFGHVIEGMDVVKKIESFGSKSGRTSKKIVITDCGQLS
Procedure: (§1) Titration of a single probe concentration against different enzyme concentrations was used to determine the dissociation constant (Kd). From this we also determined the enzyme concentration that would give a high enough polarization signal to measure binding affinities.
(§2) At least three replicates were used for each experiment. The percentage of DMSO in the total solution should remain lower than 1%. […] Measurements were taken after gain adjustment of control sample and 30-min incubation with a xenon flash light with filter settings for 485-nm excitation and 520-nm emission.

CypA = CypA (Homo sapiens, UniProt P62937); experiment: Fluorescence polarization cyclophilin binding assay, CypA; details: probe 45 nM, enzyme 40 nM
CypA, sequence (P62937 whole entry, species assumed): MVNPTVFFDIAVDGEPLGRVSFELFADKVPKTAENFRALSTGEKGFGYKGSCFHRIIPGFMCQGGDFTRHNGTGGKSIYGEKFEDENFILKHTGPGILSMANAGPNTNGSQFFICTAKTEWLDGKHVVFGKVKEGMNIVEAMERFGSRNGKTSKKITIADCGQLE
Text: Fluorescence polarization (FP) is inversely related to the molecular rotation of the fluorophore. Fluorophores linked to small molecules tumble faster and emit less polarized fluorescence than fluorophore-small molecules bound to proteins. FP is a convenient technique to measure affinity of ligands to cyclophilins ([59], [60]).
as §1, §2

[6] = before treatment (baseline of the JW47 group)

SMILES	effect on T cell response, contact hypersensitivity model ([1]; 0.1 mg/kg intraperitoneally daily)	effect on T cell response, contact hypersensitivity model ([1]; 1 mg/kg intraperitoneally daily)	effect on T cell response, contact hypersensitivity model ([1]; 10 mg/kg intraperitoneally daily)	rescue of HIV-1 infectivity in TRIM-CypA cells (TRIM-CypA)	effect on mitochondria in cortical neurons (rat cortical neurons; 40 nM)	effect on mitochondria in cortical neurons (rat cortical neurons; 1 μM)	concentration that inhibited neuronal mitochondrial membrane potential (rat cortical neurons; rat cortical neurons) [nM]	effect on CRC, mitochondria from WT mice [2]	immunosuppressive activity in antigen-driven proliferation assay [3]	incidence of disease (relapse) ([4]; 1 mg/kg intraperitoneally daily from day 33)	onset of induced relapse ([4]; 1 mg/kg intraperitoneally daily, SCH injection day 28, mean ± S.D.) [days]	rotorod activity during the second remission after relapse ([4]; 1 mg/kg intraperitoneally daily, day 45) [s]	minimal neurological score during the second remission ([4]; 1 mg/kg intraperitoneally daily, p < 0.001 vs vehicle)	maximal severity disease score ([4]; 1 mg/kg intraperitoneally daily, score 0–5, mean ± S.E.)	loss of nerves and axons within the spinal cord, neurofilament ELISA ([4]; 1 mg/kg intraperitoneally daily, vs vehicle)	minimal clinical score during the first remission [4, 6]	rotorod activity on day 27 during the first remission [4, 6] [s]	concentration up to which mitochondrial membrane potential, oxygen consumption and ATP production were not affected [5]	Ki (K133I CypD) [nM]	Ki (CypA) [nM]
CC[C@@H]1NC(=O)[C@H]([C@H](O)[C@H](C)C/C=C/CCC[n+]2cccc3ccccc32)N(C)C(=O)[C@H](C(C)C)N(C)C(=O)[C@H](CC(C)C)N(C)C(=O)[C@H](CC(C)C)N(C)C(=O)[C@@H](C)NC(=O)[C@H](C)NC(=O)[C@H](CC(C)C)N(C)C(=O)[C@H](C(C)C)NC(=O)[C@H](CC(C)C)N(C)C(=O)CN(C)C1=O [JW47, [Gly-(1S,2R,E)-8-quinolinium-1-hydroxy-2-methyloct-4-ene]^1 CsA]	no effect	no effect	inhibited the T cell response	no activity	not affected	significantly depolarized	1000	significantly increased	markedly less immunosuppressive activity compared with CsA	14 of 14	34.5 ± 0.7	135.0 ± 42.9	1.4 ± 0.3	3.9 ± 0.1	lost significantly (p < 0.01) fewer nerves	0.6 ± 0.1	168.8 ± 21.8	up to 200 nM	–	–
C/C=C/C[C@@H](C)[C@@H](O)[C@H]1C(=O)N[C@@H](CC)C(=O)N(C)[C@H](Cc2ccc(C(=O)O)cc2)C(=O)N(C)[C@@H](CC(C)C)C(=O)N[C@@H](C(C)C)C(=O)N(C)[C@@H](CC(C)C)C(=O)N[C@@H](C)C(=O)N[C@H](C)C(=O)N(C)[C@@H](CC(C)C)C(=O)N(C)[C@@H](CC(C)C)C(=O)N(C)[C@@H](C(C)C)C(=O)N1C [SmBzCsA]	–	–	–	–	–	–	–	–	–	–	–	–	–	–	–	–	–	–	202 ± 14.1	236 ± 8.4
